# Legend:
# FAAH [1] = target: T1, FAAH (Homo sapiens, UniProt O00519); experiment: Assay Method 1B: FAAH assay, 3H-anandamide hydrolysis in cell homogenate (T84 or SK-N-MC cells transfected with human FAAH); type: biochemical; parameters: expressed in transfected cells; conditions: 3H-AEA 80 nM, rt 1 h, pH 9
# T1 sequence (O00519 1-579): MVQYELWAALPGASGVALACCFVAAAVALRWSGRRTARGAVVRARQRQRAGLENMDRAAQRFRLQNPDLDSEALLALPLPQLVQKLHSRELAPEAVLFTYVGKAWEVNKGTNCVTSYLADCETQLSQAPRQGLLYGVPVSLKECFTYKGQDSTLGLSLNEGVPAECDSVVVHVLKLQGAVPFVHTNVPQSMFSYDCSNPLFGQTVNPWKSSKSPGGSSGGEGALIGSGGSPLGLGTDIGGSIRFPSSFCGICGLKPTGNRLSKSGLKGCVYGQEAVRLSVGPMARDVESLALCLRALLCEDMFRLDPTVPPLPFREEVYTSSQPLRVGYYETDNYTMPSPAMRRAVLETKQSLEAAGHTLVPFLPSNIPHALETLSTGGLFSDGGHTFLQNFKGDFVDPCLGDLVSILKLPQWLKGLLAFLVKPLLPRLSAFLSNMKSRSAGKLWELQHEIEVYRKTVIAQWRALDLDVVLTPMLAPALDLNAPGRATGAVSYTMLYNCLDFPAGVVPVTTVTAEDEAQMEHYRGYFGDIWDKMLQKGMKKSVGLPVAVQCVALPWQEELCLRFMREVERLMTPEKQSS
# Protocol: Transfection of Cells with Human FAAH A 10-cm tissue culture dish with a confluent monolayer of SK—N-MC cells was split 2 days (d) prior to transfection. Using sterile technique, the media was removed and the cells were detached from the dish by the addition of trypsin. One fifth of the cells were then placed onto a new 10-cm dish. Cells were grown in a 37° C. incubator with 5% CO2 in Minimal Essential Media Eagle with 10% Fetal Bovine Serum. After 2 d, cells were approximately 80% confluent. These cells were removed from the dish with trypsin and pelleted in a clinical centrifuge. The pellet was re-suspended in 400 μL complete media and transferred to an electroporation cuvette with a 0.4 cm gap between the electrodes. Supercoiled human FAAH cDNA (1 μg) was added to the cells and mixed. The voltage for the electroporation was set at 0.25 kV, and the capacitance was set at 960 μF. After electroporation, the cells were diluted into complete media (10 mL) and plated onto four 10-cm dishes. Because of the variability in the efficiency of electroporation, four different concentrations of cells were plated. The ratios used were 1:20, 1:10, and 1:5, with the remainder of the cells being added to the fourth dish. The cells were allowed to recover for 24 h before adding the selection media (complete media with 600 μg/mL G418). After 10 d, dishes were analyzed for surviving colonies of cells. Dishes with well-isolated colonies were used. Cells from individual colonies were isolated and tested. […] The reaction mixture was incubated at rt for 1 h. During the incubation, 96-well Multiscreen filter plates (catalog number MAFCNOB50; Millipore, Bedford, Mass., USA) were loaded with 25 μL of activated charcoal (Multiscreen column loader, catalog number MACL09625, Millipore) and washed once with 100 μL of MeOH. Also during the incubation, 96-well DYNEX MicroLite plates (catalog number NL510410) were loaded with 100 μL of MicroScint40 (catalog number 6013641, Packard Bioscience, Meriden, Conn., USA). After the 1 h incubation, 60 μL of the reaction mixture were transferred to the charcoal plates, which were then assembled on top of the DYNEX plates using Centrifuge Alignment Frames (catalog number MACF09604, Millipore). The unbound labeled ethanolamine was centrifuged through to the bottom plate (5 min at 2000 rpm), which was preloaded with the scintillant, as described above. The plates were sealed and left at rt for 1 h before counting on a Hewlett Packard TopCount.
# Rat FAAH = target: T2, Rat FAAH (Rattus norvegicus, UniProt P97612); experiment: Assay Method 2: FAAH assay, 3H-anandamide hydrolysis in cell homogenate (SK-N-MC cells transfected with rat FAAH); type: biochemical; conditions: 3H-AEA 80 nM, rt 1 h, pH 9
# T2 construct: expressed in transfected cells
# T2 sequence (P97612 1-579): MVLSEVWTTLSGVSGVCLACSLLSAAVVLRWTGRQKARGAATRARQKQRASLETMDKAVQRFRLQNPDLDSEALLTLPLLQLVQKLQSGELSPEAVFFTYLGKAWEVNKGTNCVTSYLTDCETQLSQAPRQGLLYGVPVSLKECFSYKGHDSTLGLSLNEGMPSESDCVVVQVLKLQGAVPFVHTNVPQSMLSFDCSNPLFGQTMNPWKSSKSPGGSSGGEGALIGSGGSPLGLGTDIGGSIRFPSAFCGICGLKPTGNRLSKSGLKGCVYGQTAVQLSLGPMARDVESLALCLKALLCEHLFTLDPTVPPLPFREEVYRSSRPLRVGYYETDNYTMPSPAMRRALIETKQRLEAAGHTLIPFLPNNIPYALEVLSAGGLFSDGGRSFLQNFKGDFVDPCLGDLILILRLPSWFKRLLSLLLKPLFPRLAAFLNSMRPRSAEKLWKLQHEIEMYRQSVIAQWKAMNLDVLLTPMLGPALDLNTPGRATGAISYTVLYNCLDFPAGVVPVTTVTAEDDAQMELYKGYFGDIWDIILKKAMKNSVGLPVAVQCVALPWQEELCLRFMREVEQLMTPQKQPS
# Protocol: A. Transfection of Cells with Rat FAAH
# A 10-cm tissue culture dish with a confluent monolayer of SK—N-MC cells was split 2 days (d) prior to transfection. Using sterile technique, the media was removed and the cells were detached from the dish by the addition of trypsin. One fifth of the cells were then placed onto a new 10-cm dish. Cells were grown in a 37° C. incubator with 5% CO2 in Minimal Essential Media Eagle with 10% Fetal Bovine Serum. After 2 d, cells were approximately 80% confluent. These cells were removed from the dish with trypsin and pelleted in a clinical centrifuge. The pellet was re-suspended in 400 μL complete media and transferred to an electroporation cuvette with a 0.4 cm gap between the electrodes. Supercoiled rat FAAH cDNA (1 μg) was added to the cells and mixed. The voltage for the electroporation was set at 0.25 kV, and the capacitance was set at 960 μF. After electroporation, the cells were diluted into complete media (10 mL) and plated onto four 10-cm dishes. Because of the variability in the efficiency of electroporation, four different concentrations of cells were plated. The ratios used were 1:20, 1:10, and 1:5, with the remainder of the cells being added to the fourth dish. The cells were allowed to recover for 24 h before adding the selection media (complete media with 600 μg/mL G418). After 10 d, dishes were analyzed for surviving colonies of cells. Dishes with well-isolated colonies were used. Cells from individual colonies were isolated and tested.
# The assay mixture consisted of 50 μL of the cell homogenate, 10 μL of the test compound, and 40 μL of anandamide [1-^3H-ethanolamine] (^3H-AEA, Perkin-Elmer, 10.3 Ci/mmol), which was added last, for a final tracer concentration of 80 nM. The reaction mixture was incubated at rt for 1 h. During the incubation, 96-well Multiscreen filter plates (catalog number MAFCNOB50; Millipore, Bedford, Mass., USA) were loaded with 25 μL of activated charcoal (Multiscreen column loader, catalog number MACL09625, Millipore) and washed once with 100 μL of MeOH. […] After the 1 h incubation, 60 μL of the reaction mixture were transferred to the charcoal plates, which were then assembled on top of the DYNEX plates using Centrifuge Alignment Frames (catalog number MACF09604, Millipore). The unbound labeled ethanolamine was centrifuged through to the bottom plate (5 min at 2000 rpm), which was preloaded with the scintillant, as described above. The plates were sealed and left at rt for 1 h before counting on a Hewlett Packard TopCount.
# FAAH [2] = target: T3, FAAH (Rattus norvegicus, UniProt P97612); experiment: Assay Method 1A: FAAH enzyme assay, 14C-oleamide hydrolysis, solubilized liver plasma membrane extract;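 further: ki obtained by Dixon analysis, taking the x-intercept of inhibitor concentration versus reciprocal rate plots at fixed substrate level and correcting for substrate concentration relative to Km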
# T3 sequence (P97612 1-579): T2 sequence (P97612 1-579)
# Protocol: Linear least squares fits were used for all reaction progress curves and R^2 values were consistently >0.97. […] Ki values were determined by the Dixon Method (x-intercepts of weighted linear fits of [I] versus 1/rate plots at constant substrate concentration, which were converted to Ki values using the formula Ki=−xint/[1+[S]/Km]).
# [3] = Solubility determination in water; type: physicochemical; conditions: thermodynamic from solid; in water at 5, 1 and 0.1 mg/mL; pH of resulting solutions 7-8.5
# Protocol: Physical Chemical Properties
# Solubility determinations were made by mixing the test compound in water at 5 mg/mL, 1 mg/mL, and 0.1 mg/mL concentrations. The pH of the resulting solutions was 7-8.5.
IC50 (FAAH [1]),IC50 (Rat FAAH),Ki (FAAH [2]),solubility [3],Structure (SMILES)
115 nM,3500 nM,170 nM,,"O=C(CCCCCCc1ccccc1)c1ncc(-c2ccccc2O)o1 [Example 30, 1-(5-(2-Hydroxyphenyl)oxazol-2-yl)-7-phenylheptan-1-one]"
11 nM,20 nM,6 nM,,"COC(=O)c1ccc(-c2cnc(C(=O)CCCCCCc3ccccc3)o2)o1 [Example 55, Methyl 5-(2-(7-phenylheptanoyl)oxazol-5-yl)furan-2-carboxylate]"
0.8 nM,2 nM,15 nM,> 5000 µg/mL,"O=C(O)c1ccc(-c2cnc(C(=O)CCCCCCc3ccccc3)o2)o1 [Example 56, 5-(2-(7-Phenylheptanoyl)oxazol-5-yl)furan-2-carboxylic acid]"
1000 nM,4000 nM,750 nM,,"Nc1ccccc1-c1cnc(C(=O)CCCCCCc2ccccc2)o1 [Example 27, 1-(5-(2-Aminophenyl)oxazol-2-yl)-7-phenylheptan-1-one]"

# The next lines start with the compound.
Structure (SMILES),IC50 (FAAH [1]),IC50 (Rat FAAH),Ki (FAAH [2]),solubility [3]
"O=C(CCCCCCc1ccccc1)c1ncc(-c2cccc(F)c2)o1 [Example 11, 1-(5-(3-Fluorophenyl)oxazol-2-yl)-7-phenylheptan-1-one]",220 nM,6300 nM,60 nM,
"COC(=O)c1ccc(-c2cnc(C(=O)CCCCCCc3ccccc3)o2)cc1 [Example 24, Methyl 4-(2-(7-phenylheptanoyl)oxazol-5-yl)benzoate]",24 nM,1000 nM,40 nM,
"COC(=O)c1cccnc1-c1cnc(C(=O)CCCCCCc2ccccc2)o1 [Example 36, Methyl 2-(2-(7-phenylheptanoyl)oxazol-5-yl)nicotinate]",180 nM,150 nM,> 50 nM,
"O=C(CCCCCCc1ccccc1)c1ncc(-c2cccc([N+](=O)[O-])c2)o1 [Example 2, 1-(5-(3-Nitrophenyl)oxazol-2-yl)-7-phenylheptan-1-one]",50 nM,500 nM,28 nM,
"O=C(O)c1cccc(-c2cnc(C(=O)CCCCCCc3ccccc3)o2)c1 [Example 25, 3-(2-(7-Phenylheptanoyl)oxazol-5-yl)benzoic acid]",4 nM,11 nM,5 nM,
"O=C(CCCCCCc1ccccc1)c1ncc(-c2ccccc2F)o1 [Example 10, 1-(5-(2-Fluorophenyl)oxazol-2-yl)-7-phenylheptan-1-one]",1600 nM,9000 nM,110 nM,
"COC(=O)c1cccc(-c2cnc(C(=O)CCCCCCc3ccccc3)o2)c1 [Example 23, Methyl 3-(2-(7-phenylheptanoyl)oxazol-5-yl)benzoate]",15 nM,100 nM,12 nM,
"O=C(O)c1ccc(-c2cnc(C(=O)CCCCCCc3ccccc3)o2)cc1 [Example 26, 4-(2-(7-Phenylheptanoyl)oxazol-5-yl)benzoic acid]",6 nM,160 nM,60 nM,
"NS(=O)(=O)c1ccc(-c2cnc(C(=O)CCCCCCc3ccccc3)o2)cc1 [Example 21, 4-(2-(7-Phenylheptanoyl)oxazol-5-yl)benzenesulfonamide]",8 nM,53 nM,10 nM,

# Reference: patent publication US7915270B2, “Oxazole ketones as modulators of fatty acid amide hydrolase” (The Scripps Research Institute, priority 2006, dated 2011)
